Test [1] concerns the target T1, endothelin receptor of subtype A (Rattus norvegicus, UniProt P26684).
T1 construct: endogenous endothelin receptor of subtype A has been detected; endogenous in cells
T1 sequence (P26684 21-426): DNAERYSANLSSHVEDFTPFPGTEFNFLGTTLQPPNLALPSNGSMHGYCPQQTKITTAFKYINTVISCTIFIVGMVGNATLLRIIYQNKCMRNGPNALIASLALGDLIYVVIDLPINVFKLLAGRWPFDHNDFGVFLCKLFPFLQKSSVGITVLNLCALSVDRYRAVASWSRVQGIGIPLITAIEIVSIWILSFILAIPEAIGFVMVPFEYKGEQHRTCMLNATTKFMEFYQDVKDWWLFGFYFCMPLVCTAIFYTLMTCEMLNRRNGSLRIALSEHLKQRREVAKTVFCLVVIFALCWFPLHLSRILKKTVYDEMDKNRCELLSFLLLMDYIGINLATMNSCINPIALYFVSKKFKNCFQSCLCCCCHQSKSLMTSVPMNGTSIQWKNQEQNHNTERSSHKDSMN
The test is described as follows: Functional in vitro assay system for endothelin receptor (subtype A) antagonists (ET1-induced intracellular calcium increase). It is filed as cell-based. The source says: Functional in vitro assay system for searching for endothelin receptor (subtype A) antagonists This assay system is a functional cell-based assay for endothelin receptors. Certain cells when stimulated with endothelin 1 (ET1) show an increase in the intracellular calcium concentration. This increase can be measured in intact cells which have been loaded with calcium-sensitive dyes. […] The cells were then washed twice with buffer A and resuspended at 2 10^6 /ml. The fluorescence signal at Ex/Em 380/510 from 2×10^5 cells per mL was recorded continuously at 30° C. The test substances were added to the cells and, after incubation with ET1 for 3 min, the maximum change in the fluorescence was determined. The response of the cells to ET1 without previous addition of a test substance served as control and was set equal to 100%.
For orientation: A change in cytosolic calcium serves as a functional read-out for many receptors and channels.

Another test addresses T2, ETB receptor (Cavia porcellus, UniProt H0VTF3).
T2 construct: Guinea pig cerebella were homogenized in a Potter-Elvejhem homogenizer; from tissue; host or cells: guinea pig cerebellum (membranes)
T2 sequence (H0VTF3 27-415): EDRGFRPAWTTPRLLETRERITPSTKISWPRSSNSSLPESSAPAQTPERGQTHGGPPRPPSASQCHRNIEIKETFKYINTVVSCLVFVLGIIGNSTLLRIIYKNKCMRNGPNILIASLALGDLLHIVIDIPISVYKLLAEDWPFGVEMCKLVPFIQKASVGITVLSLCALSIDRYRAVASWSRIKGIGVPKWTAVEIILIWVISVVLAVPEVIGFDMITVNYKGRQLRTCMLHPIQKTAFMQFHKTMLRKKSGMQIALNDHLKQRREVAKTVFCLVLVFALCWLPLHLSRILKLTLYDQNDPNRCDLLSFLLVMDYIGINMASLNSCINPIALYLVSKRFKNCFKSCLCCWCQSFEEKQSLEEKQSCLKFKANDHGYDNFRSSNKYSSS
The test can be described thus: Receptor-binding studies, ETB receptor binding assay ([125I]-RZ3, guinea pig cerebellar membranes). The method, then:
Cloned human ETA receptor-expressing CHO cells and guinea pig cerebellar membranes with>60% ETB receptors compared with ETA receptors were used for binding studies.
Guinea pig cerebella were homogenized in a Potter-Elvejhem homogenizer and obtained by differential centrifugation at 1000×g for 10 min and repeated centrifugation of the supernatant at 20,000×g for 10 min.
(§1) (ETB receptor assay) in the presence and absence of test substance. The non-specific binding was determined using 10^-7 M ET1. After 30 min, the free and the bound radioligand were separated by filtration through a GF/B glass fiber filter (Whatman, England) in a Skatron cell collector (Skatron, Lier, Norway), and the filters were washed with ice-cold tris-HCl buffer, pH 7.4 with 0.2% BSA. The radioactivity collected on the filters was quantified using a Packard 2200 CA liquid scintillation counter.
The Ki values were determined by non-linear regression analysis using the LIGAND program.

Another test deals with T3, human ETA receptor (Homo sapiens, UniProt P25101).
T3 construct: expressed in transfected cells; host or cells: CHO cells (membranes)
T3 sequence (P25101 21-427): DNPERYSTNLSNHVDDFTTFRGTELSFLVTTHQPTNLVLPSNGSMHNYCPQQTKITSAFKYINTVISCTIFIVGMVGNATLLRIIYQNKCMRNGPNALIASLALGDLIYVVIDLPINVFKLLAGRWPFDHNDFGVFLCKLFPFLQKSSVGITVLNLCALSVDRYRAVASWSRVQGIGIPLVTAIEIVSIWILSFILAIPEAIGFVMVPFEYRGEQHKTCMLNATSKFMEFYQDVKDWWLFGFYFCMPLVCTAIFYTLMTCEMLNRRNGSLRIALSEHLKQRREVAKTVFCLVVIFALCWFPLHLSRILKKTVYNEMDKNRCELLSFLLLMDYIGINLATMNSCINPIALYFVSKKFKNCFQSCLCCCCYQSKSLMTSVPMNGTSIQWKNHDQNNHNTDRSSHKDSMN
The test is described as follows: Receptor-binding studies, ETA receptor binding assay ([125I]-ET1). The method, then: as §1, with “After 48 h, the cells were washed with PBS and incubated with 0.05% trypsin-containing PBS for 5 min. […] The membranes were centrifuged at 20,000×g for 10 min, and the pellet was stored in liquid nitrogen. […] (ETB” for “(ETB”, “counter. The Ki values were determined by non-linear regression analysis using the LIGAND program.” for “counter.”

Structures are written as SMILES. Like-named read-outs stand apart in the source and are kept apart here.

Consider `COc1cc(OC)nc(OC(C(=O)O)C(C)(Oc2ccc(C(C)C)cc2)c2ccccc2)n1` (stereo not drawn) [Compound 4.42], for which the IC50 (in general, the midpoint of a concentration-inhibition curve) in test [1] (rat fibroblasts loaded with Fura 2-am, ET1-induced fluorescence change, 30° C., read-out: IC50) came to 740 nM. Further, the Ki – broadly, the dissociation constant of the complex between target and ligand, obtained from inhibition or displacement – on ETB receptor (guinea pig cerebellar membranes, 25 pM [125I]-RZ3, 25° C., 30 min, read-out: Ki ET-B) is 3000 nM; at human ETA receptor (cloned human ETA receptor-expressing CHO cell membranes, 25 pM [125I]-ET1, 25° C., 30 min, read-out: Ki ET-A) it was 250 nM.
For `COc1cc(OC)nc(OC(C(=O)O)C(C)(Oc2ccc(SC)cc2)c2ccccc2)n1` (stereo not drawn) [Compound 4.58], the IC50 in test [1] was 1000 nM. Further, the results for the Ki at ETB receptor and on human ETA receptor were 4700 nM and 160 nM, respectively.

For the origin of these results see patent publication US5840722A, “Use of carboxylic acid derivatives as drugs” (BASF Aktiengesellschaft, priority 1994, dated 1998).
